Test system: subjects with moderate-to-severe plaque psoriasis
Test: Suicidal ideation or behavior (Columbia-Suicide Severity Rating Scale)
[1] = Combined (all regimens), Week 16-56
[2] = Placebo → 100 mg QD, Week 16-56
[3] = Placebo → 100 mg QD, through Week 56

Description: Adverse events were reported and followed by the investigator. Any clinically relevant changes occurring during the study were recorded. Any clinically significant abnormalities persisting at the end of the study/early withdrawal were followed by the investigator until resolution or until a clinically stable condition was reached if possible. The evaluations of safety and tolerability include: physical examinations, vital signs, electrocardiograms, clinical safety laboratory assessments, review of concomitant medication, pregnancy testing, suicidal ideation evaluation via the Columbia—Suicide Severity Rating Scale, and tuberculosis evaluation.

CC(=O)NCCCC[C@@H]1NC(=O)[C@H](Cc2c[nH]c3c(C)cccc23)NC(=O)[C@H]([C@@H](C)O)NC(=O)[C@H](CC(N)=O)NC(=O)[C@@H](NC(C)=O)C(C)(C)SSC(C)(C)[C@@H](C(=O)N[C@@H](Cc2ccc(OCCN)cc2)C(=O)N[C@@H](Cc2ccc3ccccc3c2)C(=O)NC2(C(=O)N[C@@H](CCC(=O)O)C(=O)N[C@@H](CC(N)=O)C(=O)N[C@@H](Cc3cccnc3)C(=O)N(C)CC(N)=O)CCOCC2)NC1=O [IL-23 receptor antagonist peptide, Ac-[Pen]*-N-T-[W(7-Me)]-[Lys(Ac)]-[Pen]*-Phe[4-(2-aminoethoxy)]-[2-Nal]-[THP]-E-N-[3-Pal]-Sarc-NH2 (*[Pen]-[Pen]* formdisulfidebond)]
0: Subjects with 1 - Wish to be dead (25 mg BID, Week 16-56) | Subjects with 2 - Non-specific active suicidal thoughts (25 mg BID, Week 16-56) | Subjects with 3 - Active suicidal ideation with any methods (not plan) without intent to act (25 mg BID, Week 16-56) | Subjects with 4 - Active suicidal ideation with some intent to act, without specific plan (25 mg BID, Week 16-56) | Subjects with 5 - Active suicidal ideation with specific plan and intent (25 mg BID, Week 16-56) | Subjects with 6 - Preparatory acts or behavior (25 mg BID, Week 16-56) | Subjects with 7 - Aborted attempt (25 mg BID, Week 16-56) | Subjects with 8 - Interrupted attempt (25 mg BID, Week 16-56) | Subjects with 9 - Non-fatal suicide attempt (25 mg BID, Week 16-56) | Subjects with 10 - Completed suicide (25 mg BID, Week 16-56) | Subjects with suicidal behavior (25 mg BID, Week 16-56) | Subjects with suicidal ideation (25 mg BID, Week 16-56) | Subjects with suicidal ideation or behavior (25 mg BID, Week 16-56) | Subjects with 1 - Wish to be dead (25 mg BID, through Week 56) | Subjects with 2 - Non-specific active suicidal thoughts (25 mg BID, through Week 56) | Subjects with 3 - Active suicidal ideation with any methods (not plan) without intent to act (25 mg BID, through Week 56) | Subjects with 4 - Active suicidal ideation with some intent to act, without specific plan (25 mg BID, through Week 56) | Subjects with 5 - Active suicidal ideation with specific plan and intent (25 mg BID, through Week 56) | Subjects with 6 - Preparatory acts or behavior (25 mg BID, through Week 56) | Subjects with 7 - Aborted attempt (25 mg BID, through Week 56) | Subjects with 8 - Interrupted attempt (25 mg BID, through Week 56) | Subjects with 9 - Non-fatal suicide attempt (25 mg BID, through Week 56) | Subjects with 10 - Completed suicide (25 mg BID, through Week 56) | Subjects with suicidal behavior (25 mg BID, through Week 56) | Subjects with suicidal ideation (25 mg BID, through Week 56) | Subjects with suicidal ideation or behavior (25 mg BID, through Week 56) | Subjects with 1 - Wish to be dead (25 mg QD, through Week 56) | Subjects with 2 - Non-specific active suicidal thoughts (25 mg QD, through Week 56) | Subjects with 3 - Active suicidal ideation with any methods (not plan) without intent to act (25 mg QD, through Week 56) | Subjects with 4 - Active suicidal ideation with some intent to act, without specific plan (25 mg QD, through Week 56) | Subjects with 5 - Active suicidal ideation with specific plan and intent (25 mg QD, through Week 56) | Subjects with 6 - Preparatory acts or behavior (25 mg QD, through Week 56) | Subjects with 7 - Aborted attempt (25 mg QD, through Week 56) | Subjects with 8 - Interrupted attempt (25 mg QD, through Week 56) | Subjects with 9 - Non-fatal suicide attempt (25 mg QD, through Week 56) | Subjects with 10 - Completed suicide (25 mg QD, through Week 56) | Subjects with suicidal behavior (25 mg QD, through Week 56) | Subjects with suicidal ideation (25 mg QD, through Week 56) | Subjects with suicidal ideation or behavior (25 mg QD, through Week 56) | Subjects with 1 - Wish to be dead (25 mg QD, Week 16-56) | Subjects with 2 - Non-specific active suicidal thoughts (25 mg QD, Week 16-56) | Subjects with 3 - Active suicidal ideation with any methods (not plan) without intent to act (25 mg QD, Week 16-56) | Subjects with 4 - Active suicidal ideation with some intent to act, without specific plan (25 mg QD, Week 16-56) | Subjects with 5 - Active suicidal ideation with specific plan and intent (25 mg QD, Week 16-56) | Subjects with 6 - Preparatory acts or behavior (25 mg QD, Week 16-56) | Subjects with 7 - Aborted attempt (25 mg QD, Week 16-56) | Subjects with 8 - Interrupted attempt (25 mg QD, Week 16-56) | Subjects with 9 - Non-fatal suicide attempt (25 mg QD, Week 16-56) | Subjects with 10 - Completed suicide (25 mg QD, Week 16-56) | Subjects with suicidal behavior (25 mg QD, Week 16-56) | Subjects with suicidal ideation (25 mg QD, Week 16-56) | Subjects with suicidal ideation or behavior (25 mg QD, Week 16-56) | Subjects with 1 - Wish to be dead (50 mg QD, Week 16-56) | Subjects with 2 - Non-specific active suicidal thoughts (50 mg QD, Week 16-56) | Subjects with 3 - Active suicidal ideation with any methods (not plan) without intent to act (50 mg QD, Week 16-56) | Subjects with 4 - Active suicidal ideation with some intent to act, without specific plan (50 mg QD, Week 16-56) | Subjects with 5 - Active suicidal ideation with specific plan and intent (50 mg QD, Week 16-56) | Subjects with 6 - Preparatory acts or behavior (50 mg QD, Week 16-56) | Subjects with 7 - Aborted attempt (50 mg QD, Week 16-56) | Subjects with 8 - Interrupted attempt (50 mg QD, Week 16-56) | Subjects with 9 - Non-fatal suicide attempt (50 mg QD, Week 16-56) | Subjects with 10 - Completed suicide (50 mg QD, Week 16-56) | Subjects with suicidal behavior (50 mg QD, Week 16-56) | Subjects with suicidal ideation (50 mg QD, Week 16-56) | Subjects with suicidal ideation or behavior (50 mg QD, Week 16-56) | Subjects with 1 - Wish to be dead (50 mg QD, through Week 56) | Subjects with 2 - Non-specific active suicidal thoughts (50 mg QD, through Week 56) | Subjects with 3 - Active suicidal ideation with any methods (not plan) without intent to act (50 mg QD, through Week 56) | Subjects with 4 - Active suicidal ideation with some intent to act, without specific plan (50 mg QD, through Week 56) | Subjects with 5 - Active suicidal ideation with specific plan and intent (50 mg QD, through Week 56) | Subjects with 6 - Preparatory acts or behavior (50 mg QD, through Week 56) | Subjects with 7 - Aborted attempt (50 mg QD, through Week 56) | Subjects with 8 - Interrupted attempt (50 mg QD, through Week 56) | Subjects with 9 - Non-fatal suicide attempt (50 mg QD, through Week 56) | Subjects with 10 - Completed suicide (50 mg QD, through Week 56) | Subjects with suicidal behavior (50 mg QD, through Week 56) | Subjects with suicidal ideation (50 mg QD, through Week 56) | Subjects with suicidal ideation or behavior (50 mg QD, through Week 56) | Subjects with 1 - Wish to be dead (100 mg BID, Week 16-56) | Subjects with 2 - Non-specific active suicidal thoughts (100 mg BID, Week 16-56) | Subjects with 3 - Active suicidal ideation with any methods (not plan) without intent to act (100 mg BID, Week 16-56) | Subjects with 4 - Active suicidal ideation with some intent to act, without specific plan (100 mg BID, Week 16-56) | Subjects with 5 - Active suicidal ideation with specific plan and intent (100 mg BID, Week 16-56) | Subjects with 6 - Preparatory acts or behavior (100 mg BID, Week 16-56) | Subjects with 7 - Aborted attempt (100 mg BID, Week 16-56) | Subjects with 8 - Interrupted attempt (100 mg BID, Week 16-56) | Subjects with 9 - Non-fatal suicide attempt (100 mg BID, Week 16-56) | Subjects with 10 - Completed suicide (100 mg BID, Week 16-56) | Subjects with suicidal behavior (100 mg BID, Week 16-56) | Subjects with suicidal ideation (100 mg BID, Week 16-56) | Subjects with suicidal ideation or behavior (100 mg BID, Week 16-56) | Subjects with 1 - Wish to be dead (100 mg BID, through Week 56) | Subjects with 2 - Non-specific active suicidal thoughts (100 mg BID, through Week 56) | Subjects with 3 - Active suicidal ideation with any methods (not plan) without intent to act (100 mg BID, through Week 56) | Subjects with 4 - Active suicidal ideation with some intent to act, without specific plan (100 mg BID, through Week 56) | Subjects with 5 - Active suicidal ideation with specific plan and intent (100 mg BID, through Week 56) | Subjects with 6 - Preparatory acts or behavior (100 mg BID, through Week 56) | Subjects with 7 - Aborted attempt (100 mg BID, through Week 56) | Subjects with 8 - Interrupted attempt (100 mg BID, through Week 56) | Subjects with 9 - Non-fatal suicide attempt (100 mg BID, through Week 56) | Subjects with 10 - Completed suicide (100 mg BID, through Week 56) | Subjects with suicidal behavior (100 mg BID, through Week 56) | Subjects with suicidal ideation (100 mg BID, through Week 56) | Subjects with suicidal ideation or behavior (100 mg BID, through Week 56) | Subjects with 1 - Wish to be dead (100 mg QD, Week 16-56) | Subjects with 2 - Non-specific active suicidal thoughts (100 mg QD, Week 16-56) | Subjects with 3 - Active suicidal ideation with any methods (not plan) without intent to act (100 mg QD, Week 16-56) | Subjects with 4 - Active suicidal ideation with some intent to act, without specific plan (100 mg QD, Week 16-56) | Subjects with 5 - Active suicidal ideation with specific plan and intent (100 mg QD, Week 16-56) | Subjects with 6 - Preparatory acts or behavior (100 mg QD, Week 16-56) | Subjects with 7 - Aborted attempt (100 mg QD, Week 16-56) | Subjects with 8 - Interrupted attempt (100 mg QD, Week 16-56) | Subjects with 9 - Non-fatal suicide attempt (100 mg QD, Week 16-56) | Subjects with 10 - Completed suicide (100 mg QD, Week 16-56) | Subjects with suicidal behavior (100 mg QD, Week 16-56) | Subjects with suicidal ideation (100 mg QD, Week 16-56) | Subjects with 1 - Wish to be dead (100 mg QD, through Week 56) | Subjects with 2 - Non-specific active suicidal thoughts (100 mg QD, through Week 56) | Subjects with 3 - Active suicidal ideation with any methods (not plan) without intent to act (100 mg QD, through Week 56) | Subjects with 4 - Active suicidal ideation with some intent to act, without specific plan (100 mg QD, through Week 56) | Subjects with 5 - Active suicidal ideation with specific plan and intent (100 mg QD, through Week 56) | Subjects with 6 - Preparatory acts or behavior (100 mg QD, through Week 56) | Subjects with 7 - Aborted attempt (100 mg QD, through Week 56) | Subjects with 8 - Interrupted attempt (100 mg QD, through Week 56) | Subjects with 10 - Completed suicide (100 mg QD, through Week 56) | Subjects with suicidal ideation (100 mg QD, through Week 56) | Subjects with 1 - Wish to be dead [1] | Subjects with 2 - Non-specific active suicidal thoughts [1] | Subjects with 3 - Active suicidal ideation with any methods (not plan) without intent to act [1] | Subjects with 4 - Active suicidal ideation with some intent to act, without specific plan [1] | Subjects with 5 - Active suicidal ideation with specific plan and intent [1] | Subjects with 6 - Preparatory acts or behavior [1] | Subjects with 7 - Aborted attempt [1] | Subjects with 8 - Interrupted attempt [1] | Subjects with 9 - Non-fatal suicide attempt [1] | Subjects with 10 - Completed suicide [1] | Subjects with suicidal behavior [1] | Subjects with suicidal ideation [1] | Subjects with 1 - Wish to be dead (Combined, through Week 56) | Subjects with 2 - Non-specific active suicidal thoughts (Combined, through Week 56) | Subjects with 3 - Active suicidal ideation with any methods (not plan) without intent to act (Combined, through Week 56) | Subjects with 4 - Active suicidal ideation with some intent to act, without specific plan (Combined, through Week 56) | Subjects with 5 - Active suicidal ideation with specific plan and intent (Combined, through Week 56) | Subjects with 6 - Preparatory acts or behavior (Combined, through Week 56) | Subjects with 7 - Aborted attempt (Combined, through Week 56) | Subjects with 8 - Interrupted attempt (Combined, through Week 56) | Subjects with 10 - Completed suicide (Combined, through Week 56) | Subjects with suicidal ideation (Combined, through Week 56) | Subjects with 1 - Wish to be dead [2] | Subjects with 2 - Non-specific active suicidal thoughts [2] | Subjects with 3 - Active suicidal ideation with any methods (not plan) without intent to act [2] | Subjects with 4 - Active suicidal ideation with some intent to act, without specific plan [2] | Subjects with 5 - Active suicidal ideation with specific plan and intent [2] | Subjects with 6 - Preparatory acts or behavior [2] | Subjects with 7 - Aborted attempt [2] | Subjects with 8 - Interrupted attempt [2] | Subjects with 9 - Non-fatal suicide attempt [2] | Subjects with 10 - Completed suicide [2] | Subjects with suicidal behavior [2] | Subjects with suicidal ideation [2] | Subjects with suicidal ideation or behavior [2] | Subjects with 1 - Wish to be dead [3] | Subjects with 2 - Non-specific active suicidal thoughts [3] | Subjects with 3 - Active suicidal ideation with any methods (not plan) without intent to act [3] | Subjects with 4 - Active suicidal ideation with some intent to act, without specific plan [3] | Subjects with 5 - Active suicidal ideation with specific plan and intent [3] | Subjects with 6 - Preparatory acts or behavior [3] | Subjects with 7 - Aborted attempt [3] | Subjects with 8 - Interrupted attempt [3] | Subjects with 9 - Non-fatal suicide attempt [3] | Subjects with 10 - Completed suicide [3] | Subjects with suicidal behavior [3] | Subjects with suicidal ideation [3] | Subjects with suicidal ideation or behavior [3]
